One test addresses mTOR (Homo sapiens (Human), UniProt P42345).
The subject of test [1] is PI3-K (phosphorylation of AKT at serine 473) in BT20 cells. Nature of the test: PI3-Kα cellular assay (phospho-AKT Ser473 ELISA in BT20 cells).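 Further: lysates read by ELISA with TMB colour at 450 nm, cells given 0.5% DMSO vehicle serve as positive control and cell-free wells as negative control, duplicate wells per concentration.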 As to conditions: Homo sapiens, BT-20, 1 h.
The target in another test is PI3-Kα (Mus musculus (Mouse), UniProt P42337). In words: PI3-Kα biochemical assay (in vitro kinase assay, fluorescence polarization).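 Further: Insect-cell-expressed mouse p110/p85 complex converting PI(4,5)P2, product PI(3,4,5)P3 detected by displacing TAMRA-tagged PI(3,4,5)P3 from Grip1 PH domain, lower polarization means more product, room temperature.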 As to conditions: Ki calculated from IC50, [ATP]=30 uM, Km=25 uM.
[2] abbreviates: read-out: S473 pAKT 10% FBS IC50 (μM).
Where [3] appears, read: read-out: S473 pAKT 0.5% FBS IC50 (μM).

Like-named read-outs stand apart in the source and are kept apart here.

Sequence of mTOR (P42345 2156-2469): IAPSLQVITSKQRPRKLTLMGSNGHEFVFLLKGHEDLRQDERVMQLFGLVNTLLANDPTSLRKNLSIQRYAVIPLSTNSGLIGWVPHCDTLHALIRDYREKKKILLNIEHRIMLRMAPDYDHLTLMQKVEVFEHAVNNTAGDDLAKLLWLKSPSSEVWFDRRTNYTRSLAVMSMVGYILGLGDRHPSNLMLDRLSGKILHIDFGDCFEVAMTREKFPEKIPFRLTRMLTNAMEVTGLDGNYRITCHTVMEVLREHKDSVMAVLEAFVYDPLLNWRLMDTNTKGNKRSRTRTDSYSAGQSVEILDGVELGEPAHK
Sequence of PI3-Kα (P42337 whole entry, the tested form may be a part): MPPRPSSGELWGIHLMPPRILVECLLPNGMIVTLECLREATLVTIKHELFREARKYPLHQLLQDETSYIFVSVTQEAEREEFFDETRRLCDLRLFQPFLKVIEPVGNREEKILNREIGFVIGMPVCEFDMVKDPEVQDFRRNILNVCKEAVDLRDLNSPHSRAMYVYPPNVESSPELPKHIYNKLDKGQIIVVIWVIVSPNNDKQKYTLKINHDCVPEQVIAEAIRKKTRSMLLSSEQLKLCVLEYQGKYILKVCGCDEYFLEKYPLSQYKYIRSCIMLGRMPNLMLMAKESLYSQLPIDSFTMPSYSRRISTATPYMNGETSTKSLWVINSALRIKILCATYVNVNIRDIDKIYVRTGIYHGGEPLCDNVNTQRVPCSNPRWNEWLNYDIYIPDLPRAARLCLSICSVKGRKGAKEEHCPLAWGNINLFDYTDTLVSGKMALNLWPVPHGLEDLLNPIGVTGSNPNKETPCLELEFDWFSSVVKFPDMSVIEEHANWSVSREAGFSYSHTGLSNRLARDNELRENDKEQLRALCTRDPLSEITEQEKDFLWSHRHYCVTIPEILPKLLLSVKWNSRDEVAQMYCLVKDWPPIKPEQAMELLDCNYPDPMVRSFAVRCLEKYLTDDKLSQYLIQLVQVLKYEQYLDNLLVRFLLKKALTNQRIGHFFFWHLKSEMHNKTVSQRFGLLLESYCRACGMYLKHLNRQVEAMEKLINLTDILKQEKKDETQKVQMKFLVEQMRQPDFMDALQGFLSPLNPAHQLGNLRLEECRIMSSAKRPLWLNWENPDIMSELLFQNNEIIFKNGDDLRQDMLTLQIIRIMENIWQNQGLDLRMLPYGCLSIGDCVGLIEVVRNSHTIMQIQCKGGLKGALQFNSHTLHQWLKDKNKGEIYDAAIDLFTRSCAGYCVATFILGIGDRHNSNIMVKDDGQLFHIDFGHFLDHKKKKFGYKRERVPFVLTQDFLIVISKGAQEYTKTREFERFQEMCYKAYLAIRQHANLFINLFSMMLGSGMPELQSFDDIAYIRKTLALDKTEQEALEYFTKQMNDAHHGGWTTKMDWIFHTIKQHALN
Sequence of PI3-Kα (P26450 whole entry partner, the tested form may be a part): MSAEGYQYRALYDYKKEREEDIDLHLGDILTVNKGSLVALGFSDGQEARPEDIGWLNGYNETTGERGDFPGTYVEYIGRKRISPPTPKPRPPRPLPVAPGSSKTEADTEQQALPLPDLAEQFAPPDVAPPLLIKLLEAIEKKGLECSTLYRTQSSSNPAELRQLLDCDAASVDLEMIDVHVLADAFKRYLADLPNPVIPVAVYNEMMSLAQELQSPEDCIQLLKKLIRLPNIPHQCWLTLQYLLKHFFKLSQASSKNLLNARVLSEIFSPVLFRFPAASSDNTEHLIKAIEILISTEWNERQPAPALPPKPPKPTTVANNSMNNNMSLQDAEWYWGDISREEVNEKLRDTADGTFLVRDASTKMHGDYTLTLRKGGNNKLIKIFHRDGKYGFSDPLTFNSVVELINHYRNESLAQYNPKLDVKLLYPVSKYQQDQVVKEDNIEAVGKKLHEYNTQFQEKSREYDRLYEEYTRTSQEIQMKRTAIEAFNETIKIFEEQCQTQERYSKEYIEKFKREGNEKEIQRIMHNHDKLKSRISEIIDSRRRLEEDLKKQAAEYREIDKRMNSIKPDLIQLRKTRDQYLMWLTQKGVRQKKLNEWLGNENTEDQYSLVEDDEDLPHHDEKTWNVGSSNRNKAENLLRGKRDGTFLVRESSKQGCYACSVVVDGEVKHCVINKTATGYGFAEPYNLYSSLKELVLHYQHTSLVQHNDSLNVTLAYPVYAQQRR

`Cn1c(=O)n([C@H]2CC[C@H](OCCO)CC2)c2c3nc(-c4cnc5ccccc5c4)ccc3ncc21` [Compound 147, 1-[trans-4-(2-hydroxyethoxy)cyclohexyl]-3-methyl-8-quinolin-3-yl-1,3-dihydro-2H-imidazol[4,5-c][1,5]naphthyridin-2-one] registered a Ki on mTOR of 10.1 nM. In test [1] (setting [2]), the half-inhibitory concentration (IC50) worked out at 0.0107 µM. For the same compound, the “PI3Ka Ki” value at PI3-Kα was 1.08 nM.

`Cn1c(=O)n(C2CCN(C(=O)CO)CC2)c2c3nc(-c4cccc5[nH]ncc45)ccc3ncc21` [Compound 256, 1-(1-glycoloylpiperidin-4-yl)-8-(1H-indazol-4-yl)-3-methyl-1,3-dihydro-2H-imidazo[4,5-c][1,5]naphthyridin-2-one] returned a Ki at mTOR of 1.97 nM. Moreover, the IC50 in test [1] (setting [2]) turned out to be 0.0604 µM. The “PI3Ka Ki” value on PI3-Kα was 0.575 nM.

At mTOR, `CN1CCC(n2c(=O)n(C)c3cnc4ccc(-c5cnc6ccccc6c5)nc4c32)CC1` [Compound 129, 3-methyl-1-(1-methylpiperidin-4-yl)-8-quinolin-3-yl-1,3-dihydro-2H-imidazo[4,5-c][1,5]naphthyridin-2-one] gave a Ki of 4.9 nM. For the same compound, in test [1] (setting [3]), the IC50 is 0.0117 µM. In addition, the “PI3Ka Ki” value at PI3-Kα was 5.92 nM.

With `COCC(=O)N1CCC(n2c(=O)n(C)c3cnc4ccc(-c5cnc6[nH]ncc6c5)nc4c32)CC1` [Compound 260, 1-[1-(methoxyacetyl)piperidin-4-yl]-3-methyl-8-(1H-pyrazolo[3,4-b]pyridin-5-yl)-1,3-dihydro-2H-imidazo[4,5-c][1,5]naphthyridin-2-one], the Ki on mTOR was determined as 0.323 nM. In addition, the IC50 in test [1] (setting [2]) turned out to be 0.0153 µM. The “PI3Ka Ki” value at PI3-Kα is 0.167 nM.

`COc1ncc(-c2ccc3ncc4c(c3n2)n(C2CCN(CCO)CC2)c(=O)n4C)cn1` [Compound 185, 1-[1-(2-hydroxyethyl)piperidin-4-yl]-8-(2-methoxypyrimidin-5-yl)-3-methyl-1,3-dihydro-2H-imidazo[4,5-c][1,5]naphthyridin-2-one] registered a Ki on mTOR of 25.2 nM. The IC50 in test [1] (setting [2]) came out at 0.124 µM. The “PI3Ka Ki” value on PI3-Kα was 11.9 nM.

`COc1ccc(-c2ccc3ncc4c(c3n2)n(C2CCN(C(=O)CN(C)C)CC2)c(=O)n4C)cn1` [Compound 138, 1-[1-(N,N-dimethylglycyl)piperidin-4-yl]-8-(6-methoxypyridin-3-yl)-3-methyl-1,3-dihydro-2H-imidazo[4,5-c][1,5]naphthyridin-2-one] had a Ki at mTOR of 10.6 nM. Besides, in test [1] (setting [2]), the IC50 is 0.0144 µM. In addition, at PI3-Kα, the “PI3Ka Ki” value was 2.23 nM.

In turn, `COCCN1CCC(n2c(=O)n(C)c3cnc4ccc(-c5ccc(N(C)C)nc5)nc4c32)CC1` [Compound 206, 8-[6-(dimethylamino)pyridin-3-yl]-1-[1-(2-methoxyethyl)piperidin-4-yl]-3-methyl-1,3-dihydro-2H-imidazo[4,5-c][1,5]naphthyridin-2-one] displayed an inhibitory constant (Ki) at mTOR of 8.09 nM. Besides, in test [1] (setting [2]), the IC50 is 0.0318 µM. The “PI3Ka Ki” value at PI3-Kα is 0.802 nM.

For `CN(C)c1ccc(-c2ccc3ncc4c(c3n2)n([C@H]2CC[C@H](OCCO)CC2)c(=O)n4C)cn1` [Compound 149, 8-[6-(dimethylamino)pyridin-3-yl]-1-[trans-4-(2-hydroxyethoxy)cyclohexyl]-3-methyl-1,3-dihydro-2H-imidazo[4,5-c][1,5]naphthyridin-2-one], at mTOR, the affinity, expressed as Ki, was 9.02 nM. Also, the IC50 in test [1] (setting [2]) amounted to 0.0116 µM. The “PI3Ka Ki” value at PI3-Kα is 0.102 nM.

The compound `COc1ccc(-c2ccc3ncc4c(c3n2)n(CCN2CCNCC2)c(=O)n4C)cn1` [Compound 266, 8-(6-methoxypyridin-3-yl)-3-methyl-1-(2-piperazin-1-ylethyl)-1,3-dihydro-2H-imidazo[4,5-c][1,5]naphthyridin-2-one] yielded a Ki on mTOR of 273 nM. Also, the IC50 in test [1] (setting [2]) is 0.344 µM. Also, at PI3-Kα, the “PI3Ka Ki” value was 7.8 nM.

Take `COc1cccc(-c2ccc3ncc4c(c3n2)n(C2CCN(C(=O)[C@H](C)O)CC2)c(=O)n4C)c1` [Compound 275, 1-{1-[(2S)-2-hydroxypropanoyl]piperidin-4-yl}-8-(3-methoxyphenyl)-3-methyl-1,3-dihydro-2H-imidazo[4,5-c][1,5]naphthyridin-2-one]: the Ki on mTOR is 8.51 nM. The IC50 in test [1] (setting [2]) amounted to 0.0344 µM. Moreover, at PI3-Kα, the “PI3Ka Ki” value was 2.01 nM.

`COc1ncc(-c2ccc3ncc4[nH]c(=O)n(-c5ccc(C(C)(C)C#N)cc5)c4c3n2)cc1F` [Compound 109, 2-(4-(8-(5-fluoro-6-methoxypyridin-3-yl)-2-oxo-2,3-dihydroimidazo[4,5-c][1,5]naphthyridin-1-yl)phenyl)-2-methylpropanenitrile] returned a Ki on mTOR of 9.03 nM. Moreover, in test [1] (setting [3]), the IC50 was 0.197 µM. For the same compound, the “PI3Ka Ki” value on PI3-Kα was 3.81 nM.

The compound `Cc1ccc(-c2ccc3ncc4c(c3n2)n(C2CCN(C(=O)CN)CC2)c(=O)n4C)cn1` [Compound 180, 1-(1-glycylpiperidin-4-yl)-3-methyl-8-(6-methylpyridin-3-yl)-1,3-dihydro-2H-imidazo[4,5-c][1,5]naphthyridin-2-one] yielded a Ki at mTOR of 3.84 nM. Further, the IC50 in test [1] (setting [2]) amounted to 0.0689 µM. Further, at PI3-Kα, the “PI3Ka Ki” value is 0.32 nM.

`C[C@H](O)C(=O)N1CCC(n2c(=O)n(C)c3cnc4ccc(-c5ccnc6[nH]ncc56)nc4c32)CC1` [Compound 253, 1-{1-[(2S)-2-hydroxypropanoyl]piperidin-4-yl}-3-methyl-8-(1H-pyrazolo[3,4-b]pyridin-4-yl)-1,3-dihydro-2H-imidazo[4,5-c][1,5]naphthyridin-2-one]: the Ki on mTOR came out at 1.69 nM. Moreover, in test [1] (setting [2]), the IC50 is 0.218 µM. Further, the “PI3Ka Ki” value on PI3-Kα was 1.04 nM.

In the case of `Cn1c(=O)n(C2CCOCC2)c2c3nc(-c4cn[nH]c4)ccc3ncc21` [Compound 199, 3-methyl-8-(1H-pyrazol-4-yl)-1-(tetrahydro-2H-pyran-4-yl)-1,3-dihydro-2H-imidazo[4,5-c][1,5]naphthyridin-2-one], the affinity on mTOR, expressed as Ki, was 1.03 nM. Further, the IC50 in test [1] (setting [2]) came out at 0.0183 µM. The “PI3Ka Ki” value at PI3-Kα is 11.3 nM.

Compound `Cc1ccc(-c2ccc3ncc4c(c3n2)n([C@H]2CC[C@H](O)CC2)c(=O)n4C)cn1` [Compound 179, 1-(trans-4-hydroxycyclohexyl)-3-methyl-8-(6-methylpyridin-3-yl)-1,3-dihydro-2H-imidazo[4,5-c][1,5]naphthyridin-2-one] displayed a Ki on mTOR of 3.29 nM. Besides, the IC50 in test [1] (setting [2]) is 0.0185 µM. For the same compound, the “PI3Ka Ki” value at PI3-Kα is 1.03 nM.

The compound `COc1ncc(-c2ccc3ncc4c(c3n2)n([C@H]2CC[C@H](OCCO)CC2)c(=O)n4C)cn1` [Compound 148, 1-[trans-4-(2-hydroxyethoxy)cyclohexyl]-8-(2-methoxypyrimidin-5-yl)-3-methyl-1,3-dihydro-2H-imidazo[4,5-c][1,5]naphthyridin-2-one] had a Ki on mTOR of 13.4 nM. Also, the IC50 in test [1] (setting [2]) was 0.0263 µM. The “PI3Ka Ki” value at PI3-Kα was 2.09 nM.

For the compound `COc1ncc(-c2ccc3ncc4c(c3n2)n(C2CCN(C(=O)[C@H](C)O)CC2)c(=O)n4C)cn1` [Compound 154, 1-{1-[(2S)-2-hydroxypropanoyl]piperidin-4-yl}-8-(2-methoxypyrimidin-5-yl)-3-methyl-1,3-dihydro-2H-imidazo[4,5-c][1,5]naphthyridin-2-one], the Ki at mTOR was 0.822 nM. In addition, in test [1] (setting [2]), the IC50 stood at 0.0342 µM. The “PI3Ka Ki” value on PI3-Kα is 2.59 nM.

As for `Cc1ccc(-c2ccc3ncc4c(c3n2)n(-c2ccc(C(C)(C)C#N)cc2)c(=O)n4C)cn1` [Compound 106, 2-methyl-2-{4-[3-methyl-8-(6-methylpyridin-3-yl)-2-oxo-2,3-dihydro-1H-imidazo[4,5-c]-1,5-naphthyridin-1-yl]phenyl}propanenitrile], at mTOR, the Ki was found to be 26.9 nM. Further, in test [1] (setting [3]), the IC50 came to 0.0244 µM. Besides, on PI3-Kα, the “PI3Ka Ki” value was 34.8 nM.

Regarding `CCN1CCC(n2c(=O)n(C)c3cnc4ccc(-c5cnc6ccccc6c5)nc4c32)CC1` [Compound 119, 1-(1-ethylpiperidin-4-yl)-3-methyl-8-quinolin-3-yl-1,3-dihydro-2H-imidazo[4,5-c][1,5]naphthyridin-2-one], at mTOR, the Ki stood at 8.11 nM. In addition, the IC50 in test [1] (setting [3]) came to 0.0117 µM. The “PI3Ka Ki” value on PI3-Kα is 3.19 nM.

Consider `O=c1[nH]c2cnc3ccc(-c4cnc5ccccc5c4)nc3c2n1C1CCNCC1` [Compound 117, 1-piperidin-4-yl-8-quinolin-3-yl-1,3-dihydro-2H-imidazo[4,5-c][1,5]naphthyridin-2-one], for which the Ki on mTOR stood at 12.4 nM. Also, the IC50 in test [1] (setting [2]) stood at 0.353 µM. Also, at PI3-Kα, the “PI3Ka Ki” value was 2.43 nM.

`Cn1c(=O)n(C2CCNCC2)c2c3nc(-c4cnc(N)nc4)ccc3ncc21` [Compound 227, 8-(2-aminopyrimidin-5-yl)-3-methyl-1-piperidin-4-yl-1,3-dihydro-2H-imidazo[4,5-c][1,5]naphthyridin-2-one]: the Ki at mTOR worked out at 3.61 nM. Moreover, the IC50 in test [1] (setting [2]) turned out to be 0.137 µM. On PI3-Kα, the “PI3Ka Ki” value is 1.61 nM.

On to `COc1ccc(-c2ccc3ncc4c(c3n2)n(C2CCOCC2)c(=O)n4C)cn1` [Compound 140, 8-(6-methoxypyridin-3-yl)-3-methyl-1-(tetrahydro-2H-pyran-4-yl)-1,3-dihydro-2H-imidazo[4,5-c][1,5]naphthyridin-2-one], for which the Ki on mTOR was 7.74 nM. The IC50 in test [1] (setting [2]) came out at 0.0185 µM. The “PI3Ka Ki” value on PI3-Kα is 0.668 nM.

Compound `COc1ncc(-c2ccc3ncc4c(c3n2)n(C2CCNCC2)c(=O)n4C)cn1` [Compound 188, 8-(2-methoxypyrimidin-5-yl)-3-methyl-1-piperidin-4-yl-1,3-dihydro-2H-imidazo[4,5-c][1,5]naphthyridin-2-one] came in with an inhibition constant (Ki) on mTOR of 50.4 nM. In addition, the IC50 in test [1] (setting [2]) came to 0.333 µM. Moreover, at PI3-Kα, the “PI3Ka Ki” value was 8.15 nM.
